Square brackets hold non-standard residues; d marks the D form. Peptide text beside a SMILES is read from it. * marks the point of attachment. ξ: configuration not given here. Dansyl = CN(C)c1cccc2c(S(=O)(=O)*)cccc12; ξL = CC(C)CC(N)C(=O)O
Each molecule was assayed on receptor labeled by the radioiodinated analogue of 1 (4, [125I]-YLFQPQRF-NH2); neuropeptide FF receptor (assay: Competitive radioligand binding against 4 ([125I]Y8F-amide)). Conditions: mixture-based positional scanning; difference from averaged radioligand displacement of whole library (0); about 80 a.u. = 10-fold change in Ki.
`CSCC[C@H](NS(=O)(=O)c1cccc2c(N(C)C)cccc12)C(=O)N[C@@H](Cc1c[nH]cn1)C(=O)N[C@@H](CCCNC(=N)N)C(N)=O` [Dansyl-MHR-amide] (Dansyl-Met-His-Arg-NH2) was tested, and the “Relative Binding Index (RBI)” value was −50 a.u.
For `CC[C@H](C)[C@H](NC(=O)[C@H](CCSC)NS(=O)(=O)c1cccc2c(N(C)C)cccc12)C(=O)N[C@@H](CCCNC(=N)N)C(N)=O` [Dansyl-MIR-amide] (Dansyl-Met-Ile-Arg-NH2), the “Relative Binding Index (RBI)” value was −37 a.u.
For `CSCC[C@H](NS(=O)(=O)c1cccc2c(N(C)C)cccc12)C(=O)N[C@@H](CCCCN)C(=O)N[C@@H](CCCNC(=N)N)C(N)=O` [Dansyl-MKR-amide] (Dansyl-Met-Lys-Arg-NH2), the “Relative Binding Index (RBI)” value was −46 a.u.
With `CSCC[C@H](NS(=O)(=O)c1cccc2c(N(C)C)cccc12)C(=O)N[C@@H](CC(C)C)C(=O)N[C@@H](CCCNC(=N)N)C(N)=O` [Dansyl-MLR-amide] (Dansyl-Met-Leu-Arg-NH2) the “Relative Binding Index (RBI)” value was −52 a.u.
With `CSCC[C@H](NC(=O)[C@H](CCSC)NS(=O)(=O)c1cccc2c(N(C)C)cccc12)C(=O)N[C@@H](CCCNC(=N)N)C(N)=O` [Dansyl-MMR-amide] (Dansyl-Met-Met-Arg-NH2) the “Relative Binding Index (RBI)” value was −44 a.u.
`CSCC[C@H](NS(=O)(=O)c1cccc2c(N(C)C)cccc12)C(=O)N[C@@H](CC(N)=O)C(=O)N[C@@H](CCCNC(=N)N)C(N)=O` [Dansyl-MNR-amide] was tested, and the “Relative Binding Index (RBI)” value was −43 a.u.
For `CSCC[C@H](NS(=O)(=O)c1cccc2c(N(C)C)cccc12)C(=O)N1CCC[C@H]1C(=O)N[C@@H](CCCNC(=N)N)C(N)=O` [Dansyl-MPR-amide] (Dansyl-Met-Pro-Arg-NH2), the “Relative Binding Index (RBI)” value was −41 a.u.
With `CSCC[C@H](NS(=O)(=O)c1cccc2c(N(C)C)cccc12)C(=O)N[C@@H](CCC(N)=O)C(=O)N[C@@H](CCCNC(=N)N)C(N)=O` [Dansyl-MQR-amide] (Dansyl-Met-Gln-Arg-NH2) the “Relative Binding Index (RBI)” value was −30 a.u.
In the case of `CSCC[C@H](NS(=O)(=O)c1cccc2c(N(C)C)cccc12)C(=O)N[C@@H](CCCNC(=N)N)C(=O)N[C@@H](CCCNC(=N)N)C(N)=O` [Dansyl-MRR-amide] (Dansyl-Met-Arg-Arg-NH2), the “Relative Binding Index (RBI)” value is reported as −45 a.u.
With `CSCC[C@H](NS(=O)(=O)c1cccc2c(N(C)C)cccc12)C(=O)N[C@@H](CO)C(=O)N[C@@H](CCCNC(=N)N)C(N)=O` [Dansyl-MSR-amide] (Dansyl-Met-Ser-Arg-NH2) the “Relative Binding Index (RBI)” value was −23 a.u.
In the case of `CSCC[C@H](NS(=O)(=O)c1cccc2c(N(C)C)cccc12)C(=O)N[C@H](C(=O)N[C@@H](CCCNC(=N)N)C(N)=O)[C@@H](C)O` [Dansyl-MTR-amide] (Dansyl-Met-Thr-Arg-NH2), the “Relative Binding Index (RBI)” value is reported as −38 a.u.
With `CSCC[C@H](NS(=O)(=O)c1cccc2c(N(C)C)cccc12)C(=O)N[C@H](C(=O)N[C@@H](CCCNC(=N)N)C(N)=O)C(C)C` [Dansyl-MVR-amide] (Dansyl-Met-Val-Arg-NH2) the “Relative Binding Index (RBI)” value was −49 a.u.
In the case of `CSCC[C@H](NS(=O)(=O)c1cccc2c(N(C)C)cccc12)C(=O)N[C@@H](Cc1c[nH]c2ccccc12)C(=O)N[C@@H](CCCNC(=N)N)C(N)=O` [Dansyl-MWR-amide] (Dansyl-Met-Trp-Arg-NH2), the “Relative Binding Index (RBI)” value is reported as −35 a.u.
For `CSCC[C@H](NS(=O)(=O)c1cccc2c(N(C)C)cccc12)C(=O)N[C@@H](Cc1ccc(O)cc1)C(=O)N[C@@H](CCCNC(=N)N)C(N)=O` [Dansyl-MYR-amide] (Dansyl-Met-Tyr-Arg-NH2), the “Relative Binding Index (RBI)” value was −45 a.u.
With `C[C@H](NC(=O)[C@H](CC(N)=O)NS(=O)(=O)c1cccc2c(N(C)C)cccc12)C(=O)N[C@@H](CCCNC(=N)N)C(N)=O` [Dansyl-NAR-amide] (Dansyl-Asn-Ala-Arg-NH2) the “Relative Binding Index (RBI)” value was −36 a.u.
In the case of `CN(C)c1cccc2c(S(=O)(=O)N[C@@H](CC(N)=O)C(=O)N[C@@H](CC(=O)O)C(=O)N[C@@H](CCCNC(=N)N)C(N)=O)cccc12` [Dansyl-NDR-amide] (Dansyl-Asn-Asp-Arg-NH2), the “Relative Binding Index (RBI)” value is reported as −5 a.u.
With `CN(C)c1cccc2c(S(=O)(=O)N[C@@H](CC(N)=O)C(=O)N[C@@H](Cc3ccccc3)C(=O)N[C@@H](CCCNC(=N)N)C(N)=O)cccc12` [Dansyl-NFR-amide] (Dansyl-Asn-Phe-Arg-NH2) the “Relative Binding Index (RBI)” value was 11 a.u.
In the case of `CN(C)c1cccc2c(S(=O)(=O)N[C@@H](CC(N)=O)C(=O)NCC(=O)N[C@@H](CCCNC(=N)N)C(N)=O)cccc12` [Dansyl-NGR-amide] (Dansyl-Asn-Gly-Arg-NH2), the “Relative Binding Index (RBI)” value is reported as 18 a.u.
With `CN(C)c1cccc2c(S(=O)(=O)N[C@@H](CC(N)=O)C(=O)N[C@@H](Cc3c[nH]cn3)C(=O)N[C@@H](CCCNC(=N)N)C(N)=O)cccc12` [Dansyl-NHR-amide] (Dansyl-Asn-His-Arg-NH2) the “Relative Binding Index (RBI)” value was 7 a.u.
`CC[C@H](C)[C@H](NC(=O)[C@H](CC(N)=O)NS(=O)(=O)c1cccc2c(N(C)C)cccc12)C(=O)N[C@@H](CCCNC(=N)N)C(N)=O` [Dansyl-NIR-amide] (Dansyl-Asn-Ile-Arg-NH2) was tested, and the “Relative Binding Index (RBI)” value was 19 a.u.
In the case of `CN(C)c1cccc2c(S(=O)(=O)N[C@@H](CC(N)=O)C(=O)N[C@@H](CCCCN)C(=O)N[C@@H](CCCNC(=N)N)C(N)=O)cccc12` [Dansyl-NKR-amide] (Dansyl-Asn-Lys-Arg-NH2), the “Relative Binding Index (RBI)” value is reported as 10 a.u.
In the case of `CC(C)CC(NC(=O)[C@H](CC(N)=O)NS(=O)(=O)c1cccc2c(N(C)C)cccc12)C(=O)N[C@@H](CCCNC(=N)N)C(N)=O` (stereo partly drawn) [Dansyl-NLR-amide] (Dansyl-Asn-[ξL]-Arg-NH2), the “Relative Binding Index (RBI)” value is reported as 4 a.u.
With `CSCC[C@H](NC(=O)[C@H](CC(N)=O)NS(=O)(=O)c1cccc2c(N(C)C)cccc12)C(=O)N[C@@H](CCCNC(=N)N)C(N)=O` [Dansyl-NMR-amide] (Dansyl-Asn-Met-Arg-NH2) the “Relative Binding Index (RBI)” value was 13 a.u.
`CN(C)c1cccc2c(S(=O)(=O)N[C@@H](CC(N)=O)C(=O)N[C@@H](CC(N)=O)C(=O)N[C@@H](CCCNC(=N)N)C(N)=O)cccc12` [Dansyl-NNR-amide] (Dansyl-Asn-Asn-Arg-NH2) was tested, and the “Relative Binding Index (RBI)” value was 14 a.u.
`CN(C)c1cccc2c(S(=O)(=O)N[C@@H](CC(N)=O)C(=O)N3CCC[C@H]3C(=O)N[C@@H](CCCNC(=N)N)C(N)=O)cccc12` [Dansyl-NPR-amide] (Dansyl-Asn-Pro-Arg-NH2) was tested, and the “Relative Binding Index (RBI)” value was 16 a.u.
For `CN(C)c1cccc2c(S(=O)(=O)N[C@@H](CC(N)=O)C(=O)N[C@@H](CCC(N)=O)C(=O)N[C@@H](CCCNC(=N)N)C(N)=O)cccc12` [Dansyl-NQR-amide] (Dansyl-Asn-Gln-Arg-NH2), the “Relative Binding Index (RBI)” value was 26 a.u.
In the case of `CN(C)c1cccc2c(S(=O)(=O)N[C@@H](CC(N)=O)C(=O)N[C@@H](CCCNC(=N)N)C(=O)N[C@@H](CCCNC(=N)N)C(N)=O)cccc12` [Dansyl-NRR-amide] (Dansyl-Asn-Arg-Arg-NH2), the “Relative Binding Index (RBI)” value is reported as 11 a.u.
`CN(C)c1cccc2c(S(=O)(=O)N[C@@H](CC(N)=O)C(=O)N[C@@H](CO)C(=O)N[C@@H](CCCNC(=N)N)C(N)=O)cccc12` [Dansyl-NSR-amide] (Dansyl-Asn-Ser-Arg-NH2) was tested, and the “Relative Binding Index (RBI)” value was 33 a.u.
With `C[C@@H](O)[C@H](NC(=O)[C@H](CC(N)=O)NS(=O)(=O)c1cccc2c(N(C)C)cccc12)C(=O)N[C@@H](CCCNC(=N)N)C(N)=O` [Dansyl-NTR-amide] (Dansyl-Asn-Thr-Arg-NH2) the “Relative Binding Index (RBI)” value was 18 a.u.
For `CC(C)[C@H](NC(=O)[C@H](CC(N)=O)NS(=O)(=O)c1cccc2c(N(C)C)cccc12)C(=O)N[C@@H](CCCNC(=N)N)C(N)=O` [Dansyl-NVR-amide] (Dansyl-Asn-Val-Arg-NH2), the “Relative Binding Index (RBI)” value was 8 a.u.

From US6960574B2, “Antagonists of RF-amide neuropeptides” (University of Florida, priority 2002, dated 2005)
